Assay results: US20260262643A1, “HERBICIDAL BENZOXAZINES” (FMC CORPORATION, priority 2022, published 2026)

Columns and labels:
blackgrass [1] = test: Test C preemergence; format: in vivo, Alopecurus myosuroides; conditions: 0 to 100 scale (0 no effect, 100 complete control); for Plant response rating, Blackgrass: Preemergence, 500 g ai/ha, visual rating after 10 days; for Blackgrass plant response rating: Test C, preemergence, 125 g ai/ha
Procedure, shortened: (§1)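 Seeds in loam–sand blend received preemergence directed soil spray of test chemicals in non-phytotoxic solvent with surfactant; postemergence treatment was applied at one- to two-leaf stage (2–10 cm). After 10 days in greenhouse, injury rated visually versus untreated controls, 0 (no effect) to 100 (complete control).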

soybean [2] = test: Test C preemergence; format: in vivo, Glycine max; conditions: 0 to 100 scale (0 no effect, 100 complete control); for Soybean plant response rating: preemergence
Procedure, shortened: as §1

pigweed, palmer [3] = test: Test C postemergence; format: in vivo, Amaranthus palmeri; conditions: 10 days
Procedure, shortened: as §1

barnyardgrass [4] = test: Test D flooded paddy test; format: in vivo, Echinochloa crus-galli; conditions: 250 g ai/ha, applied to paddy water, visual rating after 13 to 14 days, scale 0 to 100 (0 no effect, 100 complete control)
Procedure, shortened: (§2)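 Compounds go straight into paddy water over 2-leaf plants in pots flooded to 3 cm. Greenhouse holding lasts 13 to 14 days. Injury is scored by eye against controls from 0 (none) to 100 (complete control).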

wheat [5] = test: Test C preemergence; format: in vivo, Triticum aestivum; conditions: 0 to 100 scale (0 no effect, 100 complete control); for Wheat plant response rating: preemergence
Procedure, shortened: as §1

green foxtail [6] = test: Test C preemergence; format: in vivo, Setaria viridis; conditions: 0 to 100 scale (0 no effect, 100 complete control); for Foxtail, Green plant response rating: preemergence
Procedure, shortened: as §1

ryegrass, Italian [7] = test: Test C preemergence; format: in vivo, Lolium multiflorum; conditions: 0 to 100 scale (0 no effect, 100 complete control); for Ryegrass, Italian plant response rating: preemergence
Procedure, shortened: as §1

ragweed [8] = test: Test C postemergence; format: in vivo, Ambrosia artemisiifolia; conditions: 10 days
Procedure, shortened: as §1

barnyardgrass [9] = test: Test C preemergence; format: in vivo, Echinochloa crusgalli; conditions: 0 to 100 scale (0 no effect, 100 complete control); for Plant response rating, Barnyardgrass: Preemergence, 500 g ai/ha, visual rating after 10 days; for Barnyardgrass plant response rating: preemergence, 125 g ai/ha
Procedure, shortened: as §1

ryegrass, Italian [10] = test: Test C postemergence; format: in vivo, Lolium multiflorum; conditions: 10 days
Procedure, shortened: as §1

rice = test: Test D flooded paddy test; format: in vivo, Oryza sativa; conditions: 250 g ai/ha, applied to paddy water, visual rating after 13 to 14 days, scale 0 to 100 (0 no effect, 100 complete control)
Procedure, shortened: as §2

soybean [11] = test: Test C postemergence; format: in vivo, Glycine max; conditions: 10 days
Procedure, shortened: as §1

corn [12] = test: Test C postemergence; format: in vivo, Zea mays; conditions: 10 days
Procedure, shortened: as §1

ducksalad = test: Test D flooded paddy test; format: in vivo, Heteranthera limosa; conditions: 250 g ai/ha, applied to paddy water, visual rating after 13 to 14 days, scale 0 to 100 (0 no effect, 100 complete control)
Procedure, shortened: as §2

barnyardgrass [13] = test: Test C postemergence; format: in vivo, Echinochloa crusgalli; conditions: 10 days
Procedure, shortened: as §1

oat, wild [14] = test: Test C postemergence; format: in vivo, Avena fatua; conditions: 10 days
Procedure, shortened: as §1

kochia [15] = test: Test C preemergence; format: in vivo, Bassia scoparia; conditions: 0 to 100 scale (0 no effect, 100 complete control); for Kochia plant response rating: preemergence
Procedure, shortened: as §1

sedge, umbrella = test: Test D flooded paddy test; format: in vivo, Cyperus difformis; conditions: 250 g ai/ha, applied to paddy water, visual rating after 13 to 14 days, scale 0 to 100 (0 no effect, 100 complete control)
Procedure, shortened: as §2

corn [16] = test: Test C preemergence; format: in vivo, Zea mays; conditions: 0 to 100 scale (0 no effect, 100 complete control); for Corn plant response rating: preemergence
Procedure, shortened: as §1

horseweed = test: Test C postemergence; format: in vivo, Erigeron canadensis; conditions: 10 days
Procedure, shortened: as §1

wheat [17] = test: Test C postemergence; format: in vivo, Triticum aestivum; conditions: 10 days
Procedure, shortened: as §1

pigweed, palmer [18] = test: Test C preemergence; format: in vivo, Amaranthus palmeri; conditions: 0 to 100 scale (0 no effect, 100 complete control); for Pigweed, Palmer plant response rating: preemergence
Procedure, shortened: as §1

blackgrass [19] = test: Test C postemergence; format: in vivo, Alopecurus myosuroides; conditions: 10 days
Procedure, shortened: as §1

ragweed [20] = test: Test C preemergence; format: in vivo, Ambrosia artemisiifolia; conditions: 0 to 100 scale (0 no effect, 100 complete control); for Ragweed plant response rating: preemergence
Procedure, shortened: as §1

oat, wild [21] = test: Test C preemergence; format: in vivo, Avena fatua; conditions: 0 to 100 scale (0 no effect, 100 complete control); for Oat, Wild plant response rating: preemergence
Procedure, shortened: as §1

galium = test: Test C postemergence; format: in vivo, Galium aparine; conditions: 10 days
Procedure, shortened: as §1

green foxtail [22] = test: Test C postemergence; format: in vivo, Setaria viridis; conditions: 10 days
Procedure, shortened: as §1

kochia [23] = test: Test C postemergence; format: in vivo, Bassia scoparia; conditions: 10 days
Procedure, shortened: as §1

[24] = 125 g ai/ha, postemergence, 0 to 100 scale, 0 no effect, 100 complete control
[25] = Postemergence, 500 g ai/ha, visual 0 to 100 scale (0 no effect, 100 complete control)
[26] = Preemergence, 500 g ai/ha, visual rating after 10 days

Compound: CCc1ccc(-n2cnc(C(C)(C)O)n2)cc1C(=O)N1C[C@H](C)Oc2c(C)cccc21 [Compound 279]
- Plant response rating, Blackgrass (blackgrass [1]): 90
- Blackgrass plant response rating (blackgrass [1]): 70
- Soybean plant response rating (soybean [2]; 500 g ai/ha): 100
- Soybean plant response rating (soybean [2]; Test C, 125 g ai/ha): 90
- Plant response rating, Pigweed, Palmer (pigweed, palmer [3]; [24]): 70
- Plant response rating, Barnyardgrass (Flood) (barnyardgrass [4]): 60
- Wheat plant response rating (wheat [5]; 500 g ai/ha): 90
- Wheat plant response rating (wheat [5]; Test C, 125 g ai/ha): 60
- Foxtail, Green plant response rating (green foxtail [6]; 500 g ai/ha): 100
- Foxtail, Green plant response rating (green foxtail [6]; Test C, 125 g ai/ha): 100
- Ryegrass, Italian plant response rating (ryegrass, Italian [7]; 500 g ai/ha): 90
- Ryegrass, Italian plant response rating (ryegrass, Italian [7]; Test C, 125 g ai/ha): 90
- Plant response rating, Ragweed (ragweed [8]; [24]): 50
- Plant response rating, Barnyardgrass (barnyardgrass [9]): 100
- Barnyardgrass plant response rating (barnyardgrass [9]; Test C): 90
- Plant response rating, Ryegrass, Italian (ryegrass, Italian [10]; [24]): 90
- Plant response rating, Rice (Flood) (rice): 35
- Plant response rating, Soybean (soybean [11]; [24]): 100
- Plant response rating, Corn (corn [12]; [24]): 90
- Plant response rating, Corn (corn [12]; [25]): 90
- Plant response rating, Ducksalad (Flood) (ducksalad): 100
- Plant response rating, Barnyardgrass (barnyardgrass [13]; [24]): 90
- Plant response rating, Barnyardgrass (barnyardgrass [13]; [25]): 100
- Plant response rating, Oat, Wild (oat, wild [14]; [24]): 80
- Kochia plant response rating (kochia [15]; 500 g ai/ha): 90
- Kochia plant response rating (kochia [15]; Test C, 125 g ai/ha): 70
- Plant response rating, Sedge, Umbrella (Flood) (sedge, umbrella): 100
- Corn plant response rating (corn [16]; 500 g ai/ha): 80
- Corn plant response rating (corn [16]; Test C, 125 g ai/ha): 50
- Plant response rating, Horseweed (horseweed; [24]): 0
- Plant response rating, Horseweed (horseweed; [25]): 20
- Plant response rating, Wheat (wheat [17]; [24]): 80
- Pigweed, Palmer plant response rating (pigweed, palmer [18]; 500 g ai/ha): 100
- Pigweed, Palmer plant response rating (pigweed, palmer [18]; Test C, 125 g ai/ha): 100
- Plant response rating, Blackgrass (blackgrass [19]; [24]): 80
- Plant response rating, Blackgrass (blackgrass [19]; [25]): 90
- Ragweed plant response rating (ragweed [20]; 500 g ai/ha): 90
- Ragweed plant response rating (ragweed [20]; Test C, 125 g ai/ha): 70
- Oat, Wild plant response rating (oat, wild [21]; 500 g ai/ha): 90
- Oat, Wild plant response rating (oat, wild [21]; Test C, 125 g ai/ha): 80
- Plant response rating, Galium (galium; [24]): 100
- Plant response rating, Galium (galium; [25]): 100
- Plant response rating, Foxtail, Green (green foxtail [22]; [24]): 90
- Plant response rating, Foxtail, Green (green foxtail [22]; [25]): 90
- Plant response rating, Kochia (kochia [23]; [24]): 20

Compound: CCc1ncn(-c2cc3c(c(C(=O)N4C[C@H](C)Oc5c(Cl)cccc54)c2)OCCO3)n1 [Compound 155]
- Plant response rating, Blackgrass (blackgrass [1]): 90
- Blackgrass plant response rating (blackgrass [1]): 50
- Plant response rating, Soybean (soybean [2]; [26]): 100
- Soybean plant response rating (soybean [2]; Test C, 125 g ai/ha): 70
- Plant response rating, Pigweed, Palmer (pigweed, palmer [3]; [24]): 90
- Plant response rating, Pigweed, Palmer (pigweed, palmer [3]; [25]): 100
- Plant response rating, Barnyardgrass (Flood) (barnyardgrass [4]): 20
- Plant response rating, Wheat (wheat [5]; [26]): 70
- Wheat plant response rating (wheat [5]; Test C, 125 g ai/ha): 20
- Plant response rating, Foxtail, Green (green foxtail [6]; [26]): 100
- Foxtail, Green plant response rating (green foxtail [6]; Test C, 125 g ai/ha): 100
- Plant response rating, Ryegrass, Italian (ryegrass, Italian [7]; [26]): 90
- Ryegrass, Italian plant response rating (ryegrass, Italian [7]; Test C, 125 g ai/ha): 70
- Plant response rating, Ragweed (ragweed [8]; [24]): 100
- Plant response rating, Ragweed (ragweed [8]; [25]): 100
- Barnyardgrass plant response rating (barnyardgrass [9]): 90
- Plant response rating, Barnyardgrass (barnyardgrass [9]): 100
- Plant response rating, Ryegrass, Italian (ryegrass, Italian [10]; [24]): 70
- Plant response rating, Ryegrass, Italian (ryegrass, Italian [10]; [25]): 100
- Plant response rating, Rice (Flood) (rice): 15
- Plant response rating, Soybean (soybean [11]; [24]): 100
- Plant response rating, Soybean (soybean [11]; [25]): 100
- Plant response rating, Corn (corn [12]; [24]): 40
- Plant response rating, Corn (corn [12]; [25]): 90
- Plant response rating, Ducksalad (Flood) (ducksalad): 60
- Plant response rating, Barnyardgrass (barnyardgrass [13]; [24]): 90
- Plant response rating, Barnyardgrass (barnyardgrass [13]; [25]): 90
- Plant response rating, Oat, Wild (oat, wild [14]; [24]): 20
- Plant response rating, Oat, Wild (oat, wild [14]; [25]): 50
- Plant response rating, Kochia (kochia [15]; [26]): 90
- Kochia plant response rating (kochia [15]; Test C, 125 g ai/ha): 80
- Plant response rating, Sedge, Umbrella (Flood) (sedge, umbrella): 98
- Plant response rating, Corn (corn [16]; [26]): 50
- Corn plant response rating (corn [16]; Test C, 125 g ai/ha): 10
- Plant response rating, Horseweed (horseweed; [24]): 70
- Plant response rating, Horseweed (horseweed; [25]): 70
- Plant response rating, Wheat (wheat [17]; [24]): 60
- Plant response rating, Wheat (wheat [17]; [25]): 80
- Plant response rating, Pigweed, Palmer (pigweed, palmer [18]; [26]): 100
- Pigweed, Palmer plant response rating (pigweed, palmer [18]; Test C, 125 g ai/ha): 100
- Plant response rating, Blackgrass (blackgrass [19]; [24]): 90
- Plant response rating, Blackgrass (blackgrass [19]; [25]): 100
- Plant response rating, Ragweed (ragweed [20]; [26]): 100
- Ragweed plant response rating (ragweed [20]; Test C, 125 g ai/ha): 60
- Plant response rating, Oat, Wild (oat, wild [21]; [26]): 50
- Oat, Wild plant response rating (oat, wild [21]; Test C, 125 g ai/ha): 30
- Plant response rating, Galium (galium; [24]): 100
- Plant response rating, Galium (galium; [25]): 100
- Plant response rating, Foxtail, Green (green foxtail [22]; [24]): 90
- Plant response rating, Foxtail, Green (green foxtail [22]; [25]): 90
- Plant response rating, Kochia (kochia [23]; [24]): 80
- Plant response rating, Kochia (kochia [23]; [25]): 90
